ChEMBL document CHEMBL1201862, “PubChem BioAssay data set” (2004)
Several values for one entry are separate records, joined by “and”; a condition that tells them apart may be missing. Identical values can stand only once.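 96-well plates; 48 h exposure; 5 concentrations. Endpoints by linear interpolation between flanking doses. Not reached: highest tested concentration assigned. GI50: concentration for 50% inhibition of growth.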 Activity calls are given as the source filed them. Rule as the data show it: active = GI50 up to about 1.1 µM and inactive = higher.

Experiments:
Assay in all cases: NCI-60 cell line screen, 48 h
[1] = system: U-251
[2] = system: SK-MEL-2
[3] = system: SW-620
[4] = system: HT-29
[5] = system: OVCAR-8
[6] = system: PC-3
[7] = system: OVCAR-4
[8] = system: MDA-MB-231
[9] = system: UACC-257
[10] = system: A549
[11] = system: 786-0
[12] = system: NCI-H23
[13] = system: SK-OV-3
[14] = system: HCC 2998
[15] = system: Malme-3M
[16] = system: M14
[17] = system: SK-MEL-5
[18] = system: CAKI-1
[19] = system: HOP-92
[20] = system: RXF 393

Measured: GI50

O=c1c2cc([N+](=O)[O-])cnc2sn1-c1ccc([N+](=O)[O-])cc1
inactive: [1] 49.5 µM | [2] 23.8 µM | [3] 32.1 µM | [4] 21.8 µM | [5] 42.5 µM | [6] 22 µM | [7] 27.7 µM | [8] 19.9 µM | [9] > 100 µM | [10] 33 µM | [11] 40.4 µM | [12] 31.2 µM | [13] 35.5 µM | [14] 43.8 µM | [15] 14.2 µM | [16] 48.8 µM | [17] 99.5 µM

O=C(N/N=C/C=C/c1ccc([N+](=O)[O-])o1)c1ccc(C(=O)N/N=C/C=C/c2ccc([N+](=O)[O-])o2)cc1
inactive: [1] 17.3 µM | [2] > 69.2 µM | [3] 19.1 µM | [4] 72.9 µM | [5] 13.2 µM | [6] > 30.5 µM | [7] > 72.3 µM | [18] 38.6 µM | [10] > 100 µM | [11] 20.1 µM | [19] > 62.8 µM | [20] 25.9 µM | [12] 49.8 µM | [13] > 100 µM | [14] 12.9 µM | [15] 12.7 µM | [16] 14.8 µM | [17] 22.4 µM

CC(=O)/C(=C/n1ccc(=O)[nH]c1=S)C(=O)Nc1ccccc1C
inactive: [1] > 100 µM | [2] > 100 µM | [3] > 100 µM | [4] > 100 µM | [5] > 100 µM | [7] > 100 µM | [18] > 100 µM | [8] > 100 µM | [9] > 100 µM | [10] > 100 µM | [11] > 100 µM | [19] > 100 µM | [20] > 100 µM | [12] > 100 µM | [13] > 100 µM | [14] > 100 µM | [16] > 100 µM | [17] > 100 µM

O=C(Cc1nc2ccccc2s1)C(=O)Nc1ccccc1C(F)(F)F
inactive: [1] > 100 µM | [2] > 100 µM | [3] > 100 µM | [4] > 100 µM | [5] > 100 µM | [7] > 100 µM | [18] > 100 µM | [9] > 100 µM | [10] > 100 µM | [11] > 100 µM | [19] 20.4 µM | [20] > 100 µM | [12] > 100 µM | [13] > 100 µM | [14] > 100 µM | [15] > 100 µM | [16] > 100 µM | [17] > 100 µM

O=C(Nc1ccccc1F)c1cc2ccc(O)cc2o/c1=N\c1cccc(F)c1
inactive: [1] 12.4 µM | [2] 14.3 µM | [3] 9.04 µM | [4] 37.5 µM | [5] 9.48 µM | [6] 18.6 µM | [7] 9.86 µM | [18] 19.5 µM | [9] 19.5 µM | [10] 7.98 µM | [11] 15 µM | [12] 2.16 µM | [13] 28.1 µM | [14] 15.3 µM | [15] 21.6 µM | [16] 15.7 µM | [17] 5.22 µM

O=C1C=Cc2c(-c3ccccc3)oc3cccc1c23
inactive: [1] 8.91 µM | [2] 67.1 µM | [3] 18.7 µM | [4] 23.4 µM | [5] 9.31 µM | [7] 40.7 µM | [18] 6.55 µM | [9] 35.4 µM | [10] 6.98 µM | [11] 23.7 µM | [19] 13.4 µM | [20] 24.1 µM | [12] 16.4 µM | [13] 24.4 µM | [14] 25.6 µM | [15] 37 µM | [16] 30.5 µM | [17] 20.5 µM

NC1=C(N2CCCCC2)C(=O)NC2=N/C(=C\c3ccccc3)C(=O)N21
inactive: [1] > 100 µM | [3] > 100 µM | [4] > 100 µM | [5] > 100 µM | [7] 86.3 µM | [18] > 100 µM | [8] > 100 µM | [9] > 100 µM | [10] > 100 µM | [11] > 100 µM | [19] > 100 µM | [20] > 100 µM | [12] > 100 µM | [13] > 100 µM | [14] > 100 µM | [15] > 100 µM | [16] > 100 µM | [17] > 100 µM

CN(C)c1ccc(C2C(Cl)C(=O)N2NC(=O)c2c(Cl)c(Cl)c(Cl)c(Cl)c2-c2nc3ccccc3[nH]2)cc1 (centres undefined)
inactive: [2] 21.8 µM | [3] 4.29 µM | [4] 22.3 µM | [5] 2.4 µM | [6] 12.9 µM | [18] 15.6 µM | [9] 20.5 µM | [10] 31.6 µM | [11] 2.56 µM | [19] 5.4 µM | [20] 2.48 µM | [12] 12.5 µM | [13] 33.7 µM | [14] 16.3 µM | [15] 16.3 µM | [16] 13.3 µM | [17] 16.1 µM

C=CCOC(=O)Cn1cnc2c(N)ncnc21
inactive: [1] > 100 µM | [2] > 100 µM | [3] > 100 µM | [4] > 100 µM | [5] > 100 µM | [6] > 100 µM | [7] > 100 µM | [18] > 100 µM | [8] > 100 µM | [9] > 100 µM | [10] > 100 µM | [11] > 100 µM | [12] > 100 µM | [13] > 100 µM | [14] > 100 µM | [15] > 100 µM | [16] > 100 µM | [17] > 100 µM

CN(/N=C/c1cccs1)c1ccc([N+](=O)[O-])cc1[N+](=O)[O-]
inactive: [1] > 100 µM | [3] > 100 µM | [4] > 100 µM | [5] > 100 µM | [6] > 100 µM | [7] > 100 µM | [18] > 100 µM | [8] > 100 µM | [9] > 100 µM | [10] > 100 µM | [11] > 100 µM | [20] > 100 µM | [12] > 100 µM | [13] > 100 µM | [14] > 100 µM | [16] > 100 µM | [17] > 100 µM

Clc1ccc(C2N3CCCCC3[C@@H]3c4[nH]c5ccccc5c4CCN23)cc1 (some centres undefined)
inactive: [1] 57.9 µM | [2] 34 µM | [3] 44.9 µM | [4] 22.5 µM | [5] > 100 µM | [7] 56.1 µM | [18] > 100 µM | [9] 83 µM | [10] 79.6 µM | [11] > 100 µM | [19] > 100 µM | [20] 35.2 µM | [12] 42.9 µM | [13] > 100 µM | [14] 34.9 µM | [15] 19.7 µM | [16] 38.3 µM | [17] 59 µM

O=c1c2ccccc2nc(N/N=C/c2ccc([N+](=O)[O-])cc2)n1-c1ccccc1
inactive: [1] 15.1 µM | [4] > 100 µM | [5] 37.8 µM | [6] 17.3 µM | [7] 6.1 µM | [18] 21.6 µM | [8] 11.7 µM | [9] 15.6 µM | [10] 15.6 µM | [11] 5.37 µM | [20] 7.87 µM | [12] 61.1 µM | [13] 18.7 µM | [15] 35.9 µM | [16] 31.7 µM | [17] 64.3 µM

N#Cc1cnn2cc[nH]c12
inactive: [1] > 100 µM | [2] > 100 µM | [3] > 100 µM | [4] > 100 µM | [5] > 100 µM | [6] > 100 µM | [7] > 100 µM | [18] > 100 µM | [8] > 100 µM | [9] > 100 µM | [10] > 100 µM | [11] > 100 µM | [12] > 100 µM | [13] > 100 µM | [14] > 100 µM | [16] > 100 µM | [17] > 100 µM

NS(=O)(=O)c1nnc(NC(=O)/C=C/C(=O)O)s1
inactive: [1] > 100 µM | [2] > 100 µM | [3] > 100 µM | [4] > 100 µM | [5] > 100 µM | [7] > 100 µM | [18] > 100 µM | [8] > 100 µM | [9] > 100 µM | [10] > 100 µM | [11] > 100 µM | [19] > 100 µM | [20] > 100 µM | [12] > 100 µM | [13] > 100 µM | [14] > 100 µM | [15] > 100 µM | [16] > 100 µM | [17] > 100 µM

COC(=O)[C@@H]1[C@H](O)[C@H](C)[C@H](O)[C@@](C)(O)/C=C\C=C(\C)C(=O)Nc2c(C)c(OC(C)=O)c3c(c2O)C(=O)C(C)=C2OCOC(=C23)/C(C)=C/[C@@](C)(O)[C@H](O)[C@@H](C)[C@H]1OC(C)=O
inactive: [1] 17.3 µM | [2] 37.2 µM | [3] 9.91 µM and 59 µM | [4] 38.5 µM and 56.6 µM | [5] 31.8 µM | [6] > 66.8 µM | [7] 55.6 µM | [18] 93.8 µM | [9] 27.2 µM and 80.4 µM | [10] 43.3 µM | [11] > 100 µM and 69.5 µM | [19] > 66.8 µM | [20] 62.7 µM | [12] 27.4 µM | [13] 82.2 µM | [14] 21.8 µM | [15] 31.3 µM | [17] 24.5 µM
